Where no end group is shown, it is not given here.
Biological target: T1, GRP78 (Mus musculus, UniProt P20029)
T1 construct: endogenous in cells; CT26 named for the mouse model
Experiment: Immunofluorescence cell staining of colorectal cancer cells
Type: cell-based
Settings: FITC-labeled, 1:50, 4° C. overnight, FIG. 3
Procedure: (A) Immunofluorescence cell staining 4: • (A1) Cell culturing 40: • I. A few colorectal cancer cells are cultured in a RPMI1640 of 10% fetal bovine serum (FBS) (containing 2 mM glutamine, penicillin (100 U/ml) and streptomycin ([…])). • II. The cells are put in a culture chamber having 5% CO2 at 37° C. • III. After being fully grown, the cells adhered on culture dishes are reacted with 0.05% Trypsin and are washed down. • IV. The cells washed down are further washed with a Hank's balanced salts solution. • V. The washed cells are obtained at a number about 1×10^4 to be put into a chamber slide having eight individual sections for further culturing. • VI. […] The sliced tissues are washed with a normal saline solution for 3 times each time for 5 minutes. • (A4) Fluorescence microscopy observation 43: • I. The sliced tissues are fully dried for observation with a microscope. • II. […] A fluorescence image is captured with a digital camera device. • IV. An image of the cells is captured under a visible light as a reference to the fluorescence image.
(A) Fluorescence immunoassay 7: • (A1) Fluorescence immunoassay of colorectal cancer 71: • As modern studies show, colorectal cancer cells and tissues show a lot of GRP78. […] As a result, the anti-GRP78 peptide is able to detect expression of GRP78 in colorectal cancer cell. • (A2) Fluorescence immunoassay of colorectal cancer tissue 72: […]

T1 sequence (P20029 20-655): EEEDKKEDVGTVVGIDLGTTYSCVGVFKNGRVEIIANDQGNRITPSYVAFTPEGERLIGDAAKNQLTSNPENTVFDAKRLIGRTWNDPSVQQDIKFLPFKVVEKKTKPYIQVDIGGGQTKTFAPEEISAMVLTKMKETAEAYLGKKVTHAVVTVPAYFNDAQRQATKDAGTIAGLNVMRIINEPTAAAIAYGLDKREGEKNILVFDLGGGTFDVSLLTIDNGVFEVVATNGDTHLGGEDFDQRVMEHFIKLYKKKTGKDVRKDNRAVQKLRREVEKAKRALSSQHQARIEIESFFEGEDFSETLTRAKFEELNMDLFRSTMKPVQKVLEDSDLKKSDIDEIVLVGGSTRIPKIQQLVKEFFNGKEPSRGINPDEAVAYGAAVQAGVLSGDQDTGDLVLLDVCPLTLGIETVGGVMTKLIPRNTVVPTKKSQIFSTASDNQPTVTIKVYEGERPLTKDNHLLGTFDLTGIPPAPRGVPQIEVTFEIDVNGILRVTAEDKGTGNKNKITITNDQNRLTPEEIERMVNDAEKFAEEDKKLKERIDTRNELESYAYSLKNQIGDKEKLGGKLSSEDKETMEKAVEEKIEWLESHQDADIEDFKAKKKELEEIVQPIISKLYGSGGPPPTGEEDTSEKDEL

Substance | fluorescence expression (detection of GRP78 expression in colorectal cancer cell)
fluorescein isothiocyanate [pure FITC] | no fluorescence expression
YIFPYIELC [anti-GRP78 peptide] | obvious fluorescence expression

Source: patent publication US8691189B2, “Method of colorectal cancer detection by using radiolabeled anti-GRP78 peptide” (Institute of Nuclear Energy Research, Atomic Energy Council, priority 2011, dated 2014)
